{"source": "paper PMC10983001", "about": "“Development of Cytotoxic GW7604-Zeise’s Salt Conjugates as Multitarget Compounds with Selectivity for Estrogen Receptor- Positive Tumor Cells” (Journal of Medicinal Chemistry, 2024)", "key": {"human recombinant COX-1": {"target": "T1, human recombinant COX-1 (Homo sapiens, UniProt P23219)", "T1 construct": "purchased Cayman Chemicals", "T1 sequence (P23219 24-599)": "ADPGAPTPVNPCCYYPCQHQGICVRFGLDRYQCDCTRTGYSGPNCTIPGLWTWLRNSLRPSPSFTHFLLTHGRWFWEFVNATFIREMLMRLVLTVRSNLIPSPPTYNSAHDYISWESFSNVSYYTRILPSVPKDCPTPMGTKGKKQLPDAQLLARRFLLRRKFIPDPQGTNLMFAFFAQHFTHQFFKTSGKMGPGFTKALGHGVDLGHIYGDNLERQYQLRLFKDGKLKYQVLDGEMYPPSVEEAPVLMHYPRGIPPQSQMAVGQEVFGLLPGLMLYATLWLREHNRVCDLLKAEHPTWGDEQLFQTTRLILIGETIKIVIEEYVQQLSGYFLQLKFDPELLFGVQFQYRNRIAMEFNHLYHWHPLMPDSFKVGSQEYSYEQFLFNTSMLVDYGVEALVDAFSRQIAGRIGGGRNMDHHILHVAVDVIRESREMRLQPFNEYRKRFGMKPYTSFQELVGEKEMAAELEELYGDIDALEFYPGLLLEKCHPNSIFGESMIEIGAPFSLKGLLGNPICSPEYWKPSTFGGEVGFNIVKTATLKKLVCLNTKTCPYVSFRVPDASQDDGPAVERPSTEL", "type": "biochemical", "details": "20 μM, incubation 10 min", "experimental": "(§1) COX-1/2 inhibition was evaluated in an established assay on isolated isoenzymes. After incubation with the drugs (concentration: 20 μM) for 10 min, the remaining COX activity was measured by an enzyme-linked immunosorbent assay (ELISA).\n(§2) The incubation time of the compounds with the respective isoenzymes was exactly 10 min. The results are presented as the mean ± SEM of three independent experiments, with two replicates of each experiment. […] Graphs were drawn using GraphPad Prism 8.0."}, "human recombinant COX-2": {"target": "T2, human recombinant COX-2 (Homo sapiens, UniProt P35354)", "T2 construct": "purchased Cayman Chemicals", "T2 sequence (P35354 18-604)": "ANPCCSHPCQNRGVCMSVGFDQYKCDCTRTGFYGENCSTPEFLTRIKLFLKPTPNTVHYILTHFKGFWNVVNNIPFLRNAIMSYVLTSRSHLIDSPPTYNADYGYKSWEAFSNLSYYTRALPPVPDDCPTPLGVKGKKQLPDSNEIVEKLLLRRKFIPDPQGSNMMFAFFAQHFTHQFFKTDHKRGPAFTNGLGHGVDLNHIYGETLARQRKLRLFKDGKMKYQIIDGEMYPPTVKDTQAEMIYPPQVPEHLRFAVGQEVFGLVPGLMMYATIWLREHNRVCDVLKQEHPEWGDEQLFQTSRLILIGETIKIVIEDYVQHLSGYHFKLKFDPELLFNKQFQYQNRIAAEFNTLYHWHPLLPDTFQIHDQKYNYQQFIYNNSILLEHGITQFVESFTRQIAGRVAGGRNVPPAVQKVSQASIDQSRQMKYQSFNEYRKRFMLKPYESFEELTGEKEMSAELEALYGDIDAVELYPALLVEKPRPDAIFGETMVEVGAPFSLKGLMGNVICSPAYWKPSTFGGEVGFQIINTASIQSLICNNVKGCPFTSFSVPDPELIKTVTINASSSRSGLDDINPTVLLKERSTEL", "type": "biochemical", "details": "20 μM, incubation 10 min", "experimental": "as §1, §2"}, "MCF-7 cells": {"test_system": "MCF-7 cells", "test": "MTT assay of metabolic activity, MCF-7", "type": "cell-based, human", "details": "72 h, MTT; read-out: IC50 MCF-7", "experimental": "(§3) The GW7604-Alk-PtCl3 complexes (with exclusion of GW7604-Prop-PtCl3) were investigated for cytotoxic effects in SKBr3 (ER-negative, COX-2-positive, Figure 6), MCF-7 (ERα-positive, COX-negative, Figure 6), and noncancerous TSA-201 (human embryonal kidney) cells at concentrations of 10–30 μM using an established MTT (3-(4,5-dimethylthiazol-2-yl)-2,5-diphenyltetrazolium bromide) assay.[60],[69]\n(§4) After incubation for 72 h, the amounts of surviving, metabolically active cells were quantified based on their ability to transform the water-soluble yellow dye MTT to a purple formazan, which can be analyzed by UV–vis spectroscopy.\n(§5) The exponentially growing cells were seeded at a density of 1750 (MCF-7), 2000 (SKBr3), and 1250 (TSA-201) cells/well into clear flat-bottom 96-well plates in triplicate. Following 24 h of incubation at 37 °C in a humidified atmosphere (5% CO2/95% air), the compounds [freshly prepared stock solutions in DMF, diluted with DMEM to the desired concentration (final DMF concentration of 0.1% (v/v))] were added to reach the indicated concentrations. After another 72 h of incubation, the cellular metabolic activity was measured employing an MTT assay. By adding predissolved MTT reagent in PBS at a final concentration of 0.5 mg/mL, the metabolic activity can be determined via an enzymatic conversion to a purple formazan salt. After 3 h, the medium was aspirated, and 200 μL of DMSO was added to dissolve the formed formazan crystals. The absorbance was measured at 570 and 690 nm (turbidity assessment) using an EnSpire plate reader (PerkinElmer, Waltham, MA, USA). Solvent-treated cells without a compound served as the positive control. Metabolic activity was calculated by the following equation [drawing 1]"}, "[1]": {"test": "Stability in organic solutions (1H NMR)", "type": "physicochemical", "details": "DMSO-d6, measured after 5 min / immediately after dissolution", "experimental": "Furthermore, it needs to be clarified whether organic solvent molecules are capable of ligand exchange reactions at the PtCl3 unit and form corresponding reaction/degradation products of the GW7604-Alk-PtCl3 complexes. Therefore, ^1H NMR experiments were performed with noncoordinating [e.g., acetone-d6, methanol-d4] and coordinating [e.g., acetonitrile-d3 , DMF-d7, dimethyl sulfoxide-d6 (DMSO-d6)] solvents. It should further be assessed whether the solvents are suitable for preparing stock solutions for structural characterization or in vitro testing.\nThe solutions (concentrations of 4.5–5.0 mM) were stored in NMR tubes at room temperature (rt) after being purged with argon."}, "tumor cells": {"test_system": "tumor cells", "parameters": "method as in PMID 25604474", "details": "cited from earlier work"}, "SKBr3 cells": {"test_system": "SKBr3 cells", "test": "MTT assay of metabolic activity, SKBr3", "type": "cell-based, human", "details": "72 h, MTT", "experimental": "as §3, §4, §5"}, "COX-2": {"test_system": "COX-2", "parameters": "method as in PMID 29848978", "details": "comparable concentration (10 μM); cited from earlier work"}, "COX-1": {"test_system": "COX-1", "parameters": "method as in PMID 29848978", "details": "10 μM, incubation time 10 min; cited from earlier work"}, "TSA-201 cells": {"test_system": "TSA-201 cells", "test": "MTT assay of metabolic activity, noncancerous TSA-201", "type": "cell-based, human", "details": "72 h, MTT; read-out: IC50 TSA-210", "experimental": "as §3, §4, §5"}}}
{"smiles": "C=C.O.[Cl][Pt-]([Cl])[Cl].[K+]", "note": "[Zeise’s salt, K[PtCl3(C2H4)]]", "values": [{"measurement": "% COX-1 inhibition", "setting": "human recombinant COX-1", "value": 83, "unit": "%"}, {"measurement": "% COX-2 inhibition", "setting": "human recombinant COX-2", "value": 0, "unit": "%"}, {"measurement": "IC50", "setting": "MCF-7 cells", "value": "> 20", "unit": "µM"}, {"measurement": "stability in DMSO-d6", "setting": "[1]", "value": "gas bubbling occurred from the released ethylene"}, {"measurement": "cytotoxicity against tumor cells in vitro", "setting": "tumor cells", "value": "no cytotoxicity"}, {"measurement": "IC50", "setting": "SKBr3 cells", "value": "> 20", "unit": "µM"}, {"measurement": "COX-2 inhibition", "setting": "COX-2", "value": "inactive"}, {"measurement": "COX-1 inhibition", "setting": "COX-1", "value": 100, "unit": "%"}, {"measurement": "IC50", "setting": "TSA-201 cells", "value": "> 20", "unit": "µM"}]}
